According to the NIST ThermoML archive (doi:10.1016/j.fluid.2007.04.030):
Numbers after ± are expanded uncertainties.

What was measured:
[1] = 101 kPa, Liquid
[2] = xn = mol fraction of the nth substance listed; settings: 101 kPa, Liquid, x2 = 0

SMILES | mass density ([1]; 283.15 K) [kg/m3] | mass density ([1]; 288.15 K) [kg/m3] | mass density ([1]; 293.15 K) [kg/m3] | mass density ([1]; 298.15 K) [kg/m3] | mass density ([1]; 303.15 K) [kg/m3] | mass density ([1]; 308.15 K) [kg/m3] | mass density ([1]; 313.15 K) [kg/m3] | mass density ([1]; 318.15 K) [kg/m3] | mass density ([1]; 323.15 K) [kg/m3] | mass density ([1]; 328.15 K) [kg/m3] | mass density ([1]; 333.15 K) [kg/m3] | mass density ([2]; 283.15 K) [kg/m3] | mass density ([2]; 288.15 K) [kg/m3] | mass density ([2]; 293.15 K) [kg/m3] | mass density ([2]; 298.15 K) [kg/m3] | mass density ([2]; 303.15 K) [kg/m3] | mass density ([2]; 308.15 K) [kg/m3] | mass density ([2]; 313.15 K) [kg/m3] | mass density ([2]; 318.15 K) [kg/m3] | mass density ([2]; 323.15 K) [kg/m3] | further results
CCCCO [butan-1-ol] | 817.15 ± 0.54 | 813.38 ± 0.54 | 809.59 ± 0.55 | 805.77 ± 0.56 | 801.92 ± 0.57 | 798.05 ± 0.58 | 794.14 ± 0.58 | 790.19 ± 0.59 | 786.19 ± 0.6 | 782.14 ± 0.61 | 778.03 ± 0.62 |  |  |  |  |  |  |  |  |  | 
CCO [ethanol] | 797.96 ± 0.57 | 793.71 ± 0.58 | 789.44 ± 0.59 | 785.15 ± 0.6 | 780.83 ± 0.6 | 776.48 ± 0.61 | 772.09 ± 0.62 | 767.65 ± 0.63 | 763.17 ± 0.64 | 758.63 ± 0.65 | 754.01 ± 0.66 |  |  |  |  |  |  |  |  |  | 
CCO [ethanol] + COc1cc2c(cc1O)CC1c3c(cc(O)c(OC)c3-2)CCN1C |  |  |  |  |  |  |  |  |  |  |  | 797.96 ± 0.57 | 793.71 ± 0.58 | 789.44 ± 0.59 | 785.15 ± 0.6 | 780.83 ± 0.6 | 776.48 ± 0.61 | 772.09 ± 0.62 | 767.65 ± 0.63 | 763.17 ± 0.64 | mass density ([2]; 328.15 K): 758.63 ± 0.65 kg/m3; mass density ([2]; 333.15 K): 754.01 ± 0.66 kg/m3
CCCCCCO [hexan-1-ol] | 827.82 ± 2.1 | 824.25 ± 2.1 | 820.65 ± 2.1 | 817.03 ± 2.1 | 813.39 ± 2.1 | 809.71 ± 2.1 | 806 ± 2.1 | 802.27 ± 2.1 | 798.49 ± 2.1 | 794.67 ± 2.1 | 790.8 ± 2.1 |  |  |  |  |  |  |  |  |  | 
CCCCCCO [hexan-1-ol] + COc1cc2c(cc1O)CC1c3c(cc(O)c(OC)c3-2)CCN1C |  |  |  |  |  |  |  |  |  |  |  | 827.82 ± 2.1 | 824.25 ± 2.1 | 820.65 ± 2.1 | 817.03 ± 2.1 | 813.39 ± 2.1 | 809.71 ± 2.1 | 806 ± 2.1 | 802.27 ± 2.1 | 798.49 ± 2.1 | mass density ([2]; 328.15 K): 794.67 ± 2.1 kg/m3; mass density ([2]; 333.15 K): 790.8 ± 2.1 kg/m3
CO [methanol] | 801.08 ± 0.56 | 796.41 ± 0.57 | 791.71 ± 0.58 | 787.01 ± 0.59 | 782.29 ± 0.6 | 777.55 ± 0.61 | 772.78 ± 0.62 | 767.97 ± 0.63 | 763.12 ± 0.64 | 758.23 ± 0.65 | 753.29 ± 0.66 |  |  |  |  |  |  |  |  |  | 
CO [methanol] + COc1cc2c(cc1O)CC1c3c(cc(O)c(OC)c3-2)CCN1C |  |  |  |  |  |  |  |  |  |  |  | 801.08 ± 0.56 | 796.41 ± 0.57 | 791.71 ± 0.58 | 787.01 ± 0.59 | 782.29 ± 0.6 | 777.55 ± 0.61 | 772.78 ± 0.62 | 767.97 ± 0.63 | 763.12 ± 0.64 | mass density ([2]; 328.15 K): 758.23 ± 0.65 kg/m3; mass density ([2]; 333.15 K): 753.29 ± 0.66 kg/m3
CCCCCCCCO [octan-1-ol] | 832.13 ± 0.54 | 828.71 ± 0.55 | 825.27 ± 0.56 | 821.81 ± 0.56 | 818.33 ± 0.57 | 814.84 ± 0.58 | 811.31 ± 0.58 | 807.76 ± 0.59 | 804.19 ± 0.6 | 800.58 ± 0.6 | 796.93 ± 0.61 |  |  |  |  |  |  |  |  |  | 
CCCCCCCCO [octan-1-ol] + COc1cc2c(cc1O)CC1c3c(cc(O)c(OC)c3-2)CCN1C |  |  |  |  |  |  |  |  |  |  |  | 832.13 ± 0.54 | 828.71 ± 0.55 | 825.27 ± 0.56 | 821.81 ± 0.56 | 818.33 ± 0.57 | 814.84 ± 0.58 | 811.31 ± 0.58 | 807.76 ± 0.59 | 804.19 ± 0.6 | mass density ([2]; 328.15 K): 800.58 ± 0.6 kg/m3; mass density ([2]; 333.15 K): 796.93 ± 0.61 kg/m3
CCCCCO [pentan-1-ol] | 822.42 ± 0.69 | 818.79 ± 0.7 | 815.13 ± 0.7 | 811.45 ± 0.71 | 807.74 ± 0.72 | 804.01 ± 0.72 | 800.24 ± 0.73 | 796.43 ± 0.73 | 792.57 ± 0.74 | 788.67 ± 0.75 | 784.72 ± 0.75 |  |  |  |  |  |  |  |  |  | 
CCCCCO [pentan-1-ol] + COc1cc2c(cc1O)CC1c3c(cc(O)c(OC)c3-2)CCN1C |  |  |  |  |  |  |  |  |  |  |  | 822.42 ± 0.69 | 818.79 ± 0.7 | 815.13 ± 0.7 | 811.45 ± 0.71 | 807.74 ± 0.72 | 804.01 ± 0.72 | 800.24 ± 0.73 | 796.43 ± 0.73 | 792.57 ± 0.74 | mass density ([2]; 328.15 K): 788.67 ± 0.75 kg/m3; mass density ([2]; 333.15 K): 784.72 ± 0.75 kg/m3
CCCO [propan-1-ol] | 811.57 ± 1.2 | 807.62 ± 1.2 | 803.63 ± 1.2 | 799.62 ± 1.2 | 795.58 ± 1.2 | 791.49 ± 1.2 | 787.37 ± 1.2 | 783.22 ± 1.2 | 779.01 ± 1.2 | 774.73 ± 1.2 | 770.39 ± 1.2 |  |  |  |  |  |  |  |  |  | 
CCCO [propan-1-ol] + COc1cc2c(cc1O)CC1c3c(cc(O)c(OC)c3-2)CCN1C |  |  |  |  |  |  |  |  |  |  |  | 811.57 ± 1.2 | 807.62 ± 1.2 | 803.63 ± 1.2 | 799.62 ± 1.2 | 795.58 ± 1.2 | 791.49 ± 1.2 | 787.37 ± 1.2 | 783.22 ± 1.2 | 779.01 ± 1.2 | mass density ([2]; 328.15 K): 774.73 ± 1.2 kg/m3; mass density ([2]; 333.15 K): 770.39 ± 1.2 kg/m3
CC(C)O [propan-2-ol] | 793.31 ± 0.74 | 789.22 ± 0.75 | 785.08 ± 0.75 | 780.87 ± 0.76 | 776.6 ± 0.77 | 772.25 ± 0.77 | 767.81 ± 0.78 | 763.28 ± 0.79 | 758.64 ± 0.8 | 753.88 ± 0.8 | 749.01 ± 0.81 |  |  |  |  |  |  |  |  |  | 
CC(C)O [propan-2-ol] + COc1cc2c(cc1O)CC1c3c(cc(O)c(OC)c3-2)CCN1C |  |  |  |  |  |  |  |  |  |  |  | 793.31 ± 0.74 | 789.22 ± 0.75 | 785.08 ± 0.75 | 780.87 ± 0.76 | 776.6 ± 0.77 | 772.25 ± 0.77 | 767.81 ± 0.78 | 763.28 ± 0.79 | 758.64 ± 0.8 | mass density ([2]; 328.15 K): 753.88 ± 0.8 kg/m3; mass density ([2]; 333.15 K): 749.01 ± 0.81 kg/m3
